Source: PMC12597212, “Biaryl Phosphate‐Based Inhibitors of the Transcription Factor STAT4” (Chemmedchem, 2025)
Like-named read-outs stand apart in the source and are kept apart here.

How the values were obtained:
STAT4 SH2 domain [1] = target: T1, STAT4 SH2 domain (Homo sapiens, UniProt Q14765); assay: Competitive fluorescence polarization (FP) assay, STAT4; assay type: binding; settings: for IC50: 28 nM STAT4, 10 nM tracer peptide; for Ki: Ki calculated from IC50, mean ± SD, n = 3
T1 sequence (Q14765 1-748): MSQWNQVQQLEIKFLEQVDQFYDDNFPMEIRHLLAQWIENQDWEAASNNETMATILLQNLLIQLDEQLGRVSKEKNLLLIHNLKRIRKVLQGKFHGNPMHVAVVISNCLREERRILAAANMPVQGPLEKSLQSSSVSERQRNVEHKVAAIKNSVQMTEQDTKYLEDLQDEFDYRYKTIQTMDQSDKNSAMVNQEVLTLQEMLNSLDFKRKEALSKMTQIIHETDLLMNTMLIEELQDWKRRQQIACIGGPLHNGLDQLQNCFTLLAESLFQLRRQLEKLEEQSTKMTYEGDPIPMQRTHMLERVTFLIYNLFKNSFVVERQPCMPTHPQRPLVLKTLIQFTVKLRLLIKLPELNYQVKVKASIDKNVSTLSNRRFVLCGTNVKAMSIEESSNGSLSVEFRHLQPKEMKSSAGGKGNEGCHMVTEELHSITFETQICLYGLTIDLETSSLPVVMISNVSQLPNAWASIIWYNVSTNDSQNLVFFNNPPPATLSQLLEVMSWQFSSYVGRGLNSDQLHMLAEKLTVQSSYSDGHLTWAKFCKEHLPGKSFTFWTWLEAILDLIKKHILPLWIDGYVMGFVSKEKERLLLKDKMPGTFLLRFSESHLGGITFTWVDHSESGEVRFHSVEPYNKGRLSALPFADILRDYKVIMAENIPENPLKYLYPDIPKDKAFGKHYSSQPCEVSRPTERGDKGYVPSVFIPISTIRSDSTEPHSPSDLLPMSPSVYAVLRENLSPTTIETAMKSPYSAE
Method: (§1) Fluorescence polarization assays
Competitive fluorescence polarization assays were carried as previously described.[1] Proteins […]
fluorescent-labeled peptides were used as tracers: 5-carboxyfluorescein-GpYLPQNID-OH for STAT4; 5-carboxyfluorescein-GpYDKPHVL for STAT1; 5-carboxyfluorescein-GpYLPQTV-NH2 for STAT3; 5-carboxyfluorescein-GpYLVLDKW for STAT5a/b, and 5-carboxyfluorescein- […]
mM Tris (pH 8.0), 50 mM NaCl, 1 mM EDTA, 1 mM DTT, 0.1 % Nonidet P-40 substitute, 2 %
DMSO. Proteins and test compound were incubated for 1 h at room temperature before the […]
(1 picture or pasted object on this page, not shown here) […]
fluorescent-labeled peptide was added. Samples were transferred to 384-well microtiter plates and fluorescence polarization was read after an additional 60 min of incubation time.
Experiments were carried out in triplicate. Percent binding was calculated based on a logarithmic curve fit using OriginPro 8G software. Conversion of IC50 values to Ki-values was achieved using the published equation[2] embedded in the corresponding Excel spread sheet […]
https://websites.umich.edu/~shaomengwanglab/software/calc_ki/ind ex.html.
(§2) Error bars represent standard deviations. […]
(§3) Experiments were carried out in triplicate. […]

STAT4 SH2 domain [2] = target: T1, STAT4 SH2 domain; settings: FP assay; data taken from the literature, ref [1] of the Supporting Information; cited from earlier work
STAT1 [3] = target: T2, STAT1 (Homo sapiens, UniProt P42224); settings: FP assay; data taken from the literature, ref [1] of the Supporting Information; cited from earlier work
T2 sequence (P42224 1-750): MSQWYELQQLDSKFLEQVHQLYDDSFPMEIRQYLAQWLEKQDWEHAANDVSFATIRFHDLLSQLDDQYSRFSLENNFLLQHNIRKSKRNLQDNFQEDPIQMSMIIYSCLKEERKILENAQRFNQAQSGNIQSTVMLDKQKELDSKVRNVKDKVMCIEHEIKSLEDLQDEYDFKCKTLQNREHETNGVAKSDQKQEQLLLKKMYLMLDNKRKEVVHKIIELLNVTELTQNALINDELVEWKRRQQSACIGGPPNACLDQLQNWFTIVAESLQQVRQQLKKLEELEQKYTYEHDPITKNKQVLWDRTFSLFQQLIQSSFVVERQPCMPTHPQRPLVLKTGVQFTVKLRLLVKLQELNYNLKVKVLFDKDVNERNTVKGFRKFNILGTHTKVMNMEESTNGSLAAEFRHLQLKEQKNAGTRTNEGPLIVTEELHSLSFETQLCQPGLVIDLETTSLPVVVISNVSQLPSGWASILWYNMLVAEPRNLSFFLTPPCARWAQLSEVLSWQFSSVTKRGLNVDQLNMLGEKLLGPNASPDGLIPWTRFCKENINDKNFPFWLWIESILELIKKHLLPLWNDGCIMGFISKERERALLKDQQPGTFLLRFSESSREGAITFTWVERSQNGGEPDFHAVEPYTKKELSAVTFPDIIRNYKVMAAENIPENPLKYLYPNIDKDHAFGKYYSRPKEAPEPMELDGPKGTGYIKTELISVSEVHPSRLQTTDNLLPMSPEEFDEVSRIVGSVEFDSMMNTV

STAT6 = target: T3, STAT6 (Homo sapiens, UniProt P42226); assay: Competitive fluorescence polarization (FP) assay, STAT6; assay type: binding
T3 sequence (P42226 1-847): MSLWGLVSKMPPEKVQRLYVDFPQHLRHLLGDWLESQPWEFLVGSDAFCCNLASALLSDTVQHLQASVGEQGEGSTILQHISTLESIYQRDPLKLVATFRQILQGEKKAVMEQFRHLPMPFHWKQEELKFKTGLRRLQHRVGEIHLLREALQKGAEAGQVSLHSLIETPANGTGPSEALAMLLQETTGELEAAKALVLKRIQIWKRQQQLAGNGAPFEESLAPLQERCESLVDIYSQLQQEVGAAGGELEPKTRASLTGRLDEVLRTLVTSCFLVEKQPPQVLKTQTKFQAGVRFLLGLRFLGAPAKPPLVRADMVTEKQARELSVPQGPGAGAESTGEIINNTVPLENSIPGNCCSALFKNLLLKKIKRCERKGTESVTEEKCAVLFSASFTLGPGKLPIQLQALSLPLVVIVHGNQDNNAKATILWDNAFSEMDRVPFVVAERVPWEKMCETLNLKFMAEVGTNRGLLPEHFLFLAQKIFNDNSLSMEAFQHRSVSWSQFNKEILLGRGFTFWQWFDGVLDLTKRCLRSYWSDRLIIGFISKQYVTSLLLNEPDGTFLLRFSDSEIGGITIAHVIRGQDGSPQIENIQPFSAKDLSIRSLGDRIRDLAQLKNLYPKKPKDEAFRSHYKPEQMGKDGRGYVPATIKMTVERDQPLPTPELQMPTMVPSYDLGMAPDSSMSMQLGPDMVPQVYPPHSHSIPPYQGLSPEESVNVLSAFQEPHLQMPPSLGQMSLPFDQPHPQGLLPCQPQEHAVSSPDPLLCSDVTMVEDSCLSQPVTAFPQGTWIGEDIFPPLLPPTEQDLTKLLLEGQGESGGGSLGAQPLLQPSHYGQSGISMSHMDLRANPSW
Method: as §1
(§4) STAT4; 5-carboxyfluorescein-GpYDKPHVL for STAT1; 5-carboxyfluorescein-GpYLPQTV- […]
(§5) fluorescent-labeled peptide was added. Samples were transferred to 384-well microtiter plates […]
(§6) Experiments were carried out in triplicate. Percent binding was calculated based on a logarithmic curve fit using OriginPro 8G software. Conversion of IC50 values to Ki-values was […]
as §2, §3

STAT5a = target: T4, STAT5a (Homo sapiens, UniProt P42229); assay: Competitive fluorescence polarization (FP) assay, STAT5a; assay type: binding
T4 sequence (P42229 1-794): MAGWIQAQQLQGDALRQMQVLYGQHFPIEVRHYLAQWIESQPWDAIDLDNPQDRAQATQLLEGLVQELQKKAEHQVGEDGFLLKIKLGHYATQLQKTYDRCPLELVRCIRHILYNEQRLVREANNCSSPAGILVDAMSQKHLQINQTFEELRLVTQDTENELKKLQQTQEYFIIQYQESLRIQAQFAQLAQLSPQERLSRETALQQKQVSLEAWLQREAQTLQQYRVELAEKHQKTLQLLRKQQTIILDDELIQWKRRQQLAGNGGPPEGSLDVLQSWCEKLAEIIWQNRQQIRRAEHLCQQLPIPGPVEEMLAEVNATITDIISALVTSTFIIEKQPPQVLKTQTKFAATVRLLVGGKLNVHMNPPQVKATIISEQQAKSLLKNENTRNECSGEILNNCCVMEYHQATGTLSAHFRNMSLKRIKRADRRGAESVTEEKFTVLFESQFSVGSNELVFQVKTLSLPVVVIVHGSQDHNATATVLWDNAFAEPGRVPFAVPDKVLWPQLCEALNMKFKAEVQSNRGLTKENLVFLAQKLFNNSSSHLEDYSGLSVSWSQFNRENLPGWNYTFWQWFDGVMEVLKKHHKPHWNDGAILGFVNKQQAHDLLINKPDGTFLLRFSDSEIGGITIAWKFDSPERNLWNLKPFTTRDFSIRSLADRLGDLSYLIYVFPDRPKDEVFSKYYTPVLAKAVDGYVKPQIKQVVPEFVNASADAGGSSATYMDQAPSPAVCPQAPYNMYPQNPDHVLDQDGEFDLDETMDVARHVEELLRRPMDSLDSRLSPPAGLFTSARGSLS
Method: as §1, §4, §5, §6, §2, §3

STAT5b = target: T5, STAT5b (Homo sapiens, UniProt P51692); assay: Competitive fluorescence polarization (FP) assay, STAT5b; assay type: binding
T5 sequence (P51692 1-787): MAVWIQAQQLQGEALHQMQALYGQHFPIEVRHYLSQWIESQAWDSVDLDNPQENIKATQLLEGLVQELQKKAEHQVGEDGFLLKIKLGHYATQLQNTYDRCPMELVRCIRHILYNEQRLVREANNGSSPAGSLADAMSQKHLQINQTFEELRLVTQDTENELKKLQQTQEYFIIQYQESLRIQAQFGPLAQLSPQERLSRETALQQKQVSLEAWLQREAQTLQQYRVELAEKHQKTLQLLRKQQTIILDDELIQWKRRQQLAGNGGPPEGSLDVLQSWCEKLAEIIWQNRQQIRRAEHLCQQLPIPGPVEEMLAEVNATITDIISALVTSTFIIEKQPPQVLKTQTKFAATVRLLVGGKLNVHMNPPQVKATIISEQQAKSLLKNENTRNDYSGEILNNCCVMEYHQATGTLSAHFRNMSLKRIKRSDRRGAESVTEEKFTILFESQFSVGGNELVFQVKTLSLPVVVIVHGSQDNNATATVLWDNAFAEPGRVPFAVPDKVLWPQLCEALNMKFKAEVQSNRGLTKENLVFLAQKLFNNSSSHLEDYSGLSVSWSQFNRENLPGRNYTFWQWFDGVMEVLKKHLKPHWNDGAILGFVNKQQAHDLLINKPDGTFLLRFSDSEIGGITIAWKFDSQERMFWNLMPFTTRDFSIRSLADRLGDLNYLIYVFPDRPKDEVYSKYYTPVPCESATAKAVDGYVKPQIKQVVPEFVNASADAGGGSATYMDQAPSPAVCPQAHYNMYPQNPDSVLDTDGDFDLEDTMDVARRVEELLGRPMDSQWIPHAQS
Method: as §1, §4, §5, §6, §2, §3

STAT1 [4] = target: T2, STAT1; assay: Competitive fluorescence polarization (FP) assay, STAT1; assay type: binding
Method: as §1, §4, §5, §6, §2, §3

[5] = Ki calculated from IC50, mean ± SD, n = 3

## O=P(O)(O)Oc1ccc(-c2ccsc2)cc1F [8d]
STAT4 SH2 domain [1]
  IC50: 0.52 µM
  Ki: 0.26 ± 0.02 µM

## O=P(O)(O)Oc1ccc(-c2ccccc2)cc1F [compound 13]
STAT4 SH2 domain [2]
  IC50: 1.21 µM
STAT1 [3]
  IC50: 12.8 µM

## O=P(O)(O)Oc1ccc(-c2cccc3ccccc23)cc1 [compound 10]
STAT6; 106 nM STAT6, 10 nM tracer peptide
  IC50: 19.1 µM
STAT6; [5]
  Ki: 9.4 ± 1.9 µM
STAT5a; 125-177 nM STAT5a, 10 nM tracer peptide
  IC50: 8.1 µM
STAT5a; [5]
  Ki: 4 ± 0.3 µM
STAT5b; 59-85 nM STAT5b, 10 nM tracer peptide
  IC50: 89 µM
STAT5b; [5]
  Ki: 43 ± 4 µM
STAT1 [4]; 80-92 nM STAT1, 10 nM tracer peptide
  IC50: 38 µM
STAT1 [4]; [5]
  Ki: 17 ± 1 µM

## O=P(O)(O)Oc1ccc(-c2ccccc2)cc1 [compound 1, p‐biphenyl phosphate]
STAT1 [3]
  IC50: 16.4 µM

## O=P(O)(O)Oc1ccc(-c2cccs2)cc1F [8e]
STAT4 SH2 domain [1]
  IC50: 0.6 µM
  Ki: 0.3 ± 0.003 µM
